Measured values published in US20100298141A1, “SUBSTITUTED PYRIDINE N-OXIDE HERBICIDES” (E. I. DU PONT DE NEMOURS AND COMPANY, priority 2007, published 2010).

Tests used:
[1] = test system: Italian ryegrass; assay: Test C pre-/postemergence test; format: in vivo, Lolium multiflorum
Outline: (§1)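 Compounds in a non-phytotoxic solvent with surfactant applied preemergence to seeded pots and, at the same time, postemergence to plants 2–18 cm tall (1- to 4-leaf stage). Paddy tests: pots flooded to 3 cm, compound applied into the water, depth held throughout.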

[2] = test system: green foxtail; assay: Test C pre-/postemergence test; format: in vivo, Setaria viridis
Outline: as §1

[3] = test system: blackgrass; assay: Test C pre-/postemergence test; format: in vivo, Alopecurus myosuroides
Outline: as §1

[4] = test system: umbrella sedge; assay: Test C flooded paddy test; format: in vivo, Cyperus difformis; conditions: Flood
Outline: (§2)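 Ratings were visual and made relative to untreated controls after 13 to 15 greenhouse days.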

[5] = test system: yellow nutsedge; assay: Test C pre-/postemergence test; format: in vivo, Cyperus esculentus
Outline: as §1

[6] = test system: common (oilseed) sunflower; assay: Test C pre-/postemergence test; format: in vivo, Helianthus annuus; conditions: for Sunflower plant response rating: preemergence, scale 0 (no effect) to 100 (complete control)
Outline: as §1

[7] = test system: corn; assay: Test C pre-/postemergence test; format: in vivo, Zea mays
Outline: as §1

[8] = test system: crabgrass; assay: Test A pre-/postemergence greenhouse test; format: in vivo, Digitaria sanguinalis; conditions: for Plant response rating, Crabgrass, Large: 0 to 100 scale where 0 is no effect and 100 is complete control; for Crabgrass, Large plant response rating: 0 to 100 scale
Outline: (§3)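 Test compounds in non-phytotoxic solvent with surfactant were applied as a preemergence soil spray to seeded loam/sand pots and, concurrently, postemergence to plants at 2–10 cm, one- to two-leaf stage. About ten days in greenhouse, then injury visually rated against untreated controls.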

[9] = test system: redroot pigweed; assay: Test A pre-/postemergence greenhouse test; format: in vivo, Amaranthus retroflexus; conditions: for Plant response rating, Pigweed: 0 to 100 scale where 0 is no effect and 100 is complete control; for Pigweed plant response rating: 0 to 100 scale
Outline: as §3

[10] = test system: morningglory; assay: Test A pre-/postemergence greenhouse test; format: in vivo, Ipomoea spp.; conditions: for Plant response rating, Morningglory: 0 to 100 scale where 0 is no effect and 100 is complete control; for Morningglory plant response rating: 0 to 100 scale
Outline: as §3

[11] = test system: duck salad; assay: Test C flooded paddy test; format: in vivo, Heteranthera limosa; conditions: Flood
Outline: as §2

[12] = test system: eastern black nightshade; assay: Test C pre-/postemergence test; format: in vivo, Solanum ptycanthum
Outline: as §1

[13] = test system: woolly cupgrass; assay: Test C pre-/postemergence test; format: in vivo, Eriochloa villosa
Outline: as §1

[14] = test system: wild oat; assay: Test C pre-/postemergence test; format: in vivo, Avena fatua
Outline: as §1

[15] = test system: common ragweed; assay: Test C pre-/postemergence test; format: in vivo, Ambrosia elation
Outline: as §1

[16] = test system: Goosegrass; assay: Test C pre-/postemergence test; format: in vivo, Eleusin indica
Outline: as §1

[17] = test system: wheat; assay: Test C pre-/postemergence test; format: in vivo, Triticum aestivum
Outline: as §1

[18] = 62 g ai/ha, Preemergence, scale 0 to 100
[19] = 125 g ai/ha, preemergence, scale 0 (no effect) to 100 (complete control)
[20] = Preemergence, 31 g ai/ha, scale 0 to 100 (0 no effect, 100 complete control)
[21] = preemergence, 250 g ai/ha, scale 0 (no effect) to 100 (complete control)
[22] = 31 g ai/ha, scale 0 to 100 (0 no effect, 100 complete control)
[23] = 125 g ai/ha, scale 0 to 100, 0 no effect, 100 complete control, 13 to 15 days
[24] = 250 g ai/ha, scale 0 to 100, 0 no effect, 100 complete control, 13 to 15 days
[25] = Postemergence, 500 g ai/ha, 0 is no effect, 100 is complete control
[26] = Preemergence, 125 g ai/ha, 0 no effect, 100 complete control

Cn1nc(C(F)(F)F)c(C[S+]([O-])c2ccc(F)c[n+]2[O-])c1Cl (stereo not drawn) [Compound 54]
Ryegrass, Italian plant response rating [1, 18]: 45 | Ryegrass, Italian plant response rating [1, 19]: 70 | Plant response rating, Ryegrass, Italian [1, 20]: 0 | Ryegrass, Italian plant response rating [1, 21]: 98 | Foxtail, Green plant response rating [2, 18]: 95 | Foxtail, Green plant response rating [2, 19]: 95 | Plant response rating, Foxtail, Green [2, 20]: 60 | Foxtail, Green plant response rating [2, 21]: 95 | Blackgrass plant response rating [3, 18]: 50 | Plant response rating, Blackgrass [3, 20]: 0 | Blackgrass plant response rating [3, 21]: 85 | Plant response rating, Sedge, Umbrella [4, 22]: 0 | Plant response rating, Sedge, Umbrella [4, 23]: 60 | Plant response rating, Sedge, Umbrella [4, 24]: 100 | Nutsedge, Yellow plant response rating [5, 18]: 65 | Nutsedge, Yellow plant response rating [5, 19]: 100 | Plant response rating, Nutsedge, Yellow [5, 20]: 0 | Nutsedge, Yellow plant response rating [5, 21]: 100 | Sunflower plant response rating ([6]; 125 g ai/ha): 0 | Plant response rating, Sunflower [6, 20]: 0 | Sunflower plant response rating ([6]; 250 g ai/ha): 0 | Corn plant response rating [7, 18]: 80 | Corn plant response rating [7, 19]: 85 | Plant response rating, Corn [7, 20]: 55 | Corn plant response rating [7, 21]: 98 | Plant response rating, Crabgrass, Large ([8]; Postemergence, 125 g ai/ha): 20 | Crabgrass, Large plant response rating [8, 25]: 80 | Crabgrass, Large plant response rating [8, 26]: 80 | Plant response rating, Crabgrass, Large ([8]; Preemergence, 500 g ai/ha): 90 | Plant response rating, Pigweed ([9]; Postemergence, 125 g ai/ha): 40 | Pigweed plant response rating [9, 25]: 60 | Pigweed plant response rating [9, 26]: 90 | Plant response rating, Pigweed ([9]; Preemergence, 500 g ai/ha): 100 | Plant response rating, Morningglory ([10]; Postemergence, 125 g ai/ha): 60 | Morningglory plant response rating [10, 25]: 90 | Morningglory plant response rating [10, 26]: 10 | Plant response rating, Morningglory ([10]; Preemergence, 500 g ai/ha): 80 | Plant response rating, Ducksalad [11, 22]: 0 | Plant response rating, Ducksalad ([11]; 62 g ai/ha, scale 0 to 100, 0 no effect, 100 complete control, 13 to 15 days): 0 | Plant response rating, Ducksalad [11, 23]: 0 | Plant response rating, Ducksalad [11, 24]: 85 | Nightshade plant response rating [12, 18]: 50 | Nightshade plant response rating [12, 19]: 85 | Plant response rating, Nightshade [12, 20]: 0 | Nightshade plant response rating [12, 21]: 85 | Cupgrass, Woolly plant response rating [13, 18]: 85 | Cupgrass, Woolly plant response rating [13, 19]: 95 | Plant response rating, Cupgrass, Woolly [13, 20]: 85 | Cupgrass, Woolly plant response rating [13, 21]: 98 | Oat, Wild plant response rating [14, 18]: 10 | Oat, Wild plant response rating [14, 19]: 30 | Plant response rating, Oat, Wild [14, 20]: 0 | Oat, Wild plant response rating [14, 21]: 40 | Ragweed plant response rating [15, 18]: 0 | Ragweed plant response rating [15, 19]: 5 | Plant response rating, Ragweed [15, 20]: 0 | Ragweed plant response rating [15, 21]: 10 | Goosegrass plant response rating [16, 18]: 100 | Goosegrass plant response rating [16, 19]: 100 | Plant response rating, Goosegrass [16, 20]: 95 | Goosegrass plant response rating [16, 21]: 100 | Wheat plant response rating [17, 19]: 40 | Plant response rating, Wheat [17, 20]: 0
